The results in this text go back to PMC8709454, “Enhanced Skin Delivery of Therapeutic Peptides Using Spicule-Based Topical Delivery Systems” (Pharmaceutics, 2021).

The subject of the data set is imiquimod-induced psoriatic mice. Particulars: subcutaneous injection of CysA (3 mg/mL, 100 μL, 7 times, day 1 to day 7); psoriasis mice; HPLC; mean ± SD. Here is the method: BALB/c mice were used to develop the psoriatic model. […] The back hair of the mice was shaved.
Briefly, blood (500 μL) was collected from the mice orbit and mixed with 4 mL ether. […] Mice skin, liver, and kidney samples were collected and weighed. […] In addition, the mice skin in the treatment area and the non-treated area was cryo-sectioned and stained with hematoxylin and eosin. The epidermal thickness of each skin sample was measured at three random sites with ImageJ software (V1.8.0).

For cyclosporine A [CysA], the “drug accumulation in mice kidney” value was 64.07 ± 10.25 (μg/g)/mg.
